Experimental data as given in US8802866B2, “Pyridinylimidazolone derivatives for the inhibition of PI3 kinases” (Merck Patent GmbH, priority 2009, dated 2014).

Assays:
DNA-PK protein complex = DNA-PK protein complex (Homo sapiens, UniProt P78527); test: Biochemical DNA-PK assay (FlashPlate)
Method in brief: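 Streptavidin-coated FlashPlate radiometric kinase assay, stopped with 200 mM EDTA, then wells washed with 0.9% NaCl and bound radioactivity counted. Blank (non-specific reaction) defined with a proprietary kinase inhibitor at 10 μM.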

mTOR = biological target: T1, mTOR (Homo sapiens, UniProt P42345); test: Biochemical mTOR assay (Millipore mTOR assay kit)
T1 construct: purchased Millipore 14-770
T1 sequence (P42345 1362-2549 limits assumed): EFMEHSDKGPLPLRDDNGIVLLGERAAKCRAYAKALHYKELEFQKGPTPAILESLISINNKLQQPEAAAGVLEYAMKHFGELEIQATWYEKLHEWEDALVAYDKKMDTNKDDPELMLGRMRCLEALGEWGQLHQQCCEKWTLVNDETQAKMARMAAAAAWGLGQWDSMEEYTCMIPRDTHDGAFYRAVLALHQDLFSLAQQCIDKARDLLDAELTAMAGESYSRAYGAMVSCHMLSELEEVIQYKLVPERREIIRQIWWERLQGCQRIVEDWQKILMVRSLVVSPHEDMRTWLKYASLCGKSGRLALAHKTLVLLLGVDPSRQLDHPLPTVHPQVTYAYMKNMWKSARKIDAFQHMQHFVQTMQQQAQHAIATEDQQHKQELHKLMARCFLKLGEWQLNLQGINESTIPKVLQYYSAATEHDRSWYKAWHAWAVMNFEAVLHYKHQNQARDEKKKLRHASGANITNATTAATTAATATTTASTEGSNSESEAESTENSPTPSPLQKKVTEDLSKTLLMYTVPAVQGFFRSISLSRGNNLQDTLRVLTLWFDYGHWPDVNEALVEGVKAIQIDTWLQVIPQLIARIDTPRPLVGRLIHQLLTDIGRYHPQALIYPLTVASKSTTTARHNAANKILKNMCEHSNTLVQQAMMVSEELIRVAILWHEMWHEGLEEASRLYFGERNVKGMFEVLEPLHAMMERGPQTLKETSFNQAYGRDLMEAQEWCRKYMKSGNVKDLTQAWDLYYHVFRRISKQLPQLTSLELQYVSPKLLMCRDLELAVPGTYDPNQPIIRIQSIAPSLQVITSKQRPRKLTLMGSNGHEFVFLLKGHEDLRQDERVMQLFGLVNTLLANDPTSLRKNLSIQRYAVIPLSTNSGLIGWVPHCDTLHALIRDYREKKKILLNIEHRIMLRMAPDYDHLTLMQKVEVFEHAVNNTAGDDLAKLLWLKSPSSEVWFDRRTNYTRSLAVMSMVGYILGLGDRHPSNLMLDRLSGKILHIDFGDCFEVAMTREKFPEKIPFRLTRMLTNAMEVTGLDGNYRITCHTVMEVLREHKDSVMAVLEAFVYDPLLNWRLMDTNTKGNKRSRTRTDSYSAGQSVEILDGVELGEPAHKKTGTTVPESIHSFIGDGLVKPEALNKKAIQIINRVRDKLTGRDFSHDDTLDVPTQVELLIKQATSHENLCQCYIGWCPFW
Protocol: The biochemical mTOR assay was carried out by the method described in the Millipore mTOR assay kit (catalogue number 14-770).

PI3Kbeta = PI3Kbeta (Homo sapiens, UniProt P42338); test: Biochemical PI3Kbeta assay (neomycin SPA, lipid phosphorylation); settings: human recombinant GST-PI3K
Chain of PI3Kbeta (P42338 whole entry): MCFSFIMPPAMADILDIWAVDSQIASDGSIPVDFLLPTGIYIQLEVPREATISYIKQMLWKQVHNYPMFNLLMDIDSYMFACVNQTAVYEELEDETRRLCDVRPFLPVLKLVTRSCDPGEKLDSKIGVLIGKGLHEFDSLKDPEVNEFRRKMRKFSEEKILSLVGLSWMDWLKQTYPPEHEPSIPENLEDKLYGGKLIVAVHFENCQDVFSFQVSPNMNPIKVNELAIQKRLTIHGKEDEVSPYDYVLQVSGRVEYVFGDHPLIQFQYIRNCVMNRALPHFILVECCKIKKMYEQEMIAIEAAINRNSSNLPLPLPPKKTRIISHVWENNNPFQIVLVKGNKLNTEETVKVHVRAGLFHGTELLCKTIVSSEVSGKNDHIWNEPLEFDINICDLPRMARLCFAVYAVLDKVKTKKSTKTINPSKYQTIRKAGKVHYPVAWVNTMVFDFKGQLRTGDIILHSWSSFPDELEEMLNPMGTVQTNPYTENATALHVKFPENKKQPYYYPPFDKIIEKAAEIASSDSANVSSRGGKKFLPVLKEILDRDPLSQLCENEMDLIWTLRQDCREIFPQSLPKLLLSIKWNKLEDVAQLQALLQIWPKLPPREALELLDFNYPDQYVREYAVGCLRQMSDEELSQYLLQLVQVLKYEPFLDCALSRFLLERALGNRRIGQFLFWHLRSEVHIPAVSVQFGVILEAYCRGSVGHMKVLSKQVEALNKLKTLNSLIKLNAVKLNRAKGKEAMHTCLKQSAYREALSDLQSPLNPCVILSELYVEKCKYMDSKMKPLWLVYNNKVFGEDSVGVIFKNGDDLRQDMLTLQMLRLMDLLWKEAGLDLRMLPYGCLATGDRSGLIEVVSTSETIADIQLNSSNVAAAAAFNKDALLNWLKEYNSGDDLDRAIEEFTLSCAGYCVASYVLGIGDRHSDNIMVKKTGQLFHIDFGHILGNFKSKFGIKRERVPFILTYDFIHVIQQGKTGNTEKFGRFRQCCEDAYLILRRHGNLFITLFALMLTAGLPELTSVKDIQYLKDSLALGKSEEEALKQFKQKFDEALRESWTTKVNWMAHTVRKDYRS
Chain of PI3Kbeta (P27986 whole entry partner): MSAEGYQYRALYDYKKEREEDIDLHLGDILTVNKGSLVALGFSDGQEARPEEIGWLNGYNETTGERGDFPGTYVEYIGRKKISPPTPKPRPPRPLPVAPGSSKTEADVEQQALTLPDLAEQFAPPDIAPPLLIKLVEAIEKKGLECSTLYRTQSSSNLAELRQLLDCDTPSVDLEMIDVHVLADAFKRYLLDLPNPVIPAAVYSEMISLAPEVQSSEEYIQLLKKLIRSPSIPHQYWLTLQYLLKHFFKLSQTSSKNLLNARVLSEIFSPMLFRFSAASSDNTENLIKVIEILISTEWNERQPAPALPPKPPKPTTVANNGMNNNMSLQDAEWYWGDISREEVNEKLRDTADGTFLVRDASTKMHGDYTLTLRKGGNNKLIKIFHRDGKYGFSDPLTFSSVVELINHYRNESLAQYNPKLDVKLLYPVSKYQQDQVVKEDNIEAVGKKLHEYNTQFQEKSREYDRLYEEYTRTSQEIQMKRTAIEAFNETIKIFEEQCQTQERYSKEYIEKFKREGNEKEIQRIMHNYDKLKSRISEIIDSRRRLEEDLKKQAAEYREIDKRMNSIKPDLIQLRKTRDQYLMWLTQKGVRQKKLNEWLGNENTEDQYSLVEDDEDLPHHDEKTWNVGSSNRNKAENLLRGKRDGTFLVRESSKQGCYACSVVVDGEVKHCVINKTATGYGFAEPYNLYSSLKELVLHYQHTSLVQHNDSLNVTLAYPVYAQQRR
Method in brief: (§1)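 Recombinant PI3K incubated with lipid substrate and radioactive ATP for 120 min at room temperature with gentle stirring, then stopped with neomycin-coated PVT-SPA beads, ATP 60 mM and EDTA 6.2 mM in PBS. After 60 min bead binding and centrifugation, radioactive Ptdlns(3)P counted by scintillation.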

PI3Kalpha = PI3Kalpha (Homo sapiens, UniProt P42336); test: Biochemical PI3Kalpha assay (neomycin SPA, lipid phosphorylation); settings: human recombinant GST-PI3K
Chain of PI3Kalpha (P42336 whole entry): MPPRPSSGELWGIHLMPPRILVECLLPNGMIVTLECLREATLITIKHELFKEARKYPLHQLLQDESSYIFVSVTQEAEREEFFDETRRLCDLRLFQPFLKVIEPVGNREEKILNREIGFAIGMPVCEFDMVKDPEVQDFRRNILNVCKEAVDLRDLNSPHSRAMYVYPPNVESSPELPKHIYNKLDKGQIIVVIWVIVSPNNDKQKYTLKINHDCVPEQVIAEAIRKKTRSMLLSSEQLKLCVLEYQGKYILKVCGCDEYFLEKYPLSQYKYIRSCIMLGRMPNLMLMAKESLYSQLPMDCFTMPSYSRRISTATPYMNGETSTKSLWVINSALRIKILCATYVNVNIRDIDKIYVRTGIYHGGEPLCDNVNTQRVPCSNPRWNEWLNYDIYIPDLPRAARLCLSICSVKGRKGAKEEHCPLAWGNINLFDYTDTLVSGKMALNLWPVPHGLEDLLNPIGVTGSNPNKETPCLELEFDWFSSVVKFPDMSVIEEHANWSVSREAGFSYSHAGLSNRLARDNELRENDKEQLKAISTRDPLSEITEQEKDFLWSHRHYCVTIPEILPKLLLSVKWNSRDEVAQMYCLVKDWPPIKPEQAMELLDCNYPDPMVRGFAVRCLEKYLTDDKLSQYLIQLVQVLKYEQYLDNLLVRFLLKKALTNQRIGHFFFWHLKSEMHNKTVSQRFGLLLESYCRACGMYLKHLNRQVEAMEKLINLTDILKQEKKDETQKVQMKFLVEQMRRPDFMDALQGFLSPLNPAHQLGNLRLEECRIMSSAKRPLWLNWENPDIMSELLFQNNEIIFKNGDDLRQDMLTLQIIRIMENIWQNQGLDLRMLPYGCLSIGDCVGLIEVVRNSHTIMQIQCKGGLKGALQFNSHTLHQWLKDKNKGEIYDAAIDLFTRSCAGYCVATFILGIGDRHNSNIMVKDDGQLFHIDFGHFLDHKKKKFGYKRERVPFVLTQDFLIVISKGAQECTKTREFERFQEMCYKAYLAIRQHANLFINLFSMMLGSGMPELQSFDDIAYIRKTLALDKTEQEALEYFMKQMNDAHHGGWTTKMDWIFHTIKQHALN
Chain of PI3Kalpha (P27986 whole entry partner): as the sequence (P27986 whole entry partner) above
Method in brief: as §1

[1] = biological target: recombinant PI3Kalpha (shortened form of the catalytic subunit) (Homo sapiens, UniProt P42336); test: BIACORE PI3K binding assay (SPR); settings: 25° C.
Chain of recombinant PI3Kalpha (shortened form of the catalytic subunit) (P42336 151-1068 limits assumed): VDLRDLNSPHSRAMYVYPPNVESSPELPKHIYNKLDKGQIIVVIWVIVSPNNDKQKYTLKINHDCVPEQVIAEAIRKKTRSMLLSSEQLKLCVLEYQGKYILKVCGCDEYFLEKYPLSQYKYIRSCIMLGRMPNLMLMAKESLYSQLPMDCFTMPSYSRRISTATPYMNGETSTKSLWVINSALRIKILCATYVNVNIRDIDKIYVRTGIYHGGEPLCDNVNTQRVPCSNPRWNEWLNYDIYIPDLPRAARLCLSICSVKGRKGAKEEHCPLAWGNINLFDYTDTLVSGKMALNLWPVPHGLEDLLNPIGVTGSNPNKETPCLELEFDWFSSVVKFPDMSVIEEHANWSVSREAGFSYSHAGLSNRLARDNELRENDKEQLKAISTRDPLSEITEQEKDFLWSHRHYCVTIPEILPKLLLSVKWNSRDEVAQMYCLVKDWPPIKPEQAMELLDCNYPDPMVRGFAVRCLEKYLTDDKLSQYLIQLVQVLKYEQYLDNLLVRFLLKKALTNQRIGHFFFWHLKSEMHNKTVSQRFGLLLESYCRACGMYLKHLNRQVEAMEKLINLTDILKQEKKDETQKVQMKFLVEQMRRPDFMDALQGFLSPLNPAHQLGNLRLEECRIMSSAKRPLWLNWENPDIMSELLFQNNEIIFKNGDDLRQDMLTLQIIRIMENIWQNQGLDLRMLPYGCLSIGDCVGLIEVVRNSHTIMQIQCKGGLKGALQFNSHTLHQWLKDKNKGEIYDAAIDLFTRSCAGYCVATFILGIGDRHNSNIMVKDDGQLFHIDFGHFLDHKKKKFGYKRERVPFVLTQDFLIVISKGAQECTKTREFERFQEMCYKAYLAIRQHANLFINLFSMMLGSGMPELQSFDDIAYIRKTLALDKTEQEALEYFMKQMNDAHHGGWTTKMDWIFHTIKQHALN
Method in brief: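 Contact time was 180 s and dissociation 240 s, in HEPES pH 7.40 buffer with 2% DMSO. Solvent-corrected, double-referenced data were fitted to a 1:1 model with mass transport.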

[2] = test system: PI3K-dependent phosphorylation of PKB at Serin 473 in PC3 cells; test: Cellular PI3K assay (P-S473-PKB Luminex assay in PC3 cells); format: cell-based; settings: Homo sapiens, PC-3, 0.5 h; PC3 cells, 30 min, serum-free, P-S473-PKB; read-out: IC50 (cell)
Method in brief: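 PC3 cells were exposed for 30 min under serum-free conditions to 7 concentrations of compound, then lysed. Lysates were captured overnight at 4°C on anti-total-PKB Luminex beads and detected with P-S473-PKB antibody plus PE-labelled secondary.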

| SMILES | IC50 (DNA-PK protein complex) [nM] | IC50 (mTOR) [nM] | IC50 (PI3Kbeta) [nM] | melting point [°C] | IC50 (PI3Kalpha) [nM] | Kd [1] [nM] | IC50 [2] [nM] |
| --- | --- | --- | --- | --- | --- | --- | --- |
| Cn1cc(-c2cc(-c3cnc4c(c3)CC(=O)N4)ccn2)n(-c2ccc(C(C)(C)C#N)cc2)c1=O [Example A44, 2-Methyl-2-(4-{3-methyl-2-oxo-5-[4-(2-oxo-2,3-dihydro-1H-pyrrolo[2,3-b]pyridin-5-yl)pyridin-2-yl]-2,3-dihydroimidazol-1-yl}phenyl)propionitrile] | 0.1 to 100 | 100 to 10000 | 100 to 10000 | 263 | 100 to 10000 | 0.1 to 100 | 100 to 10000 |
| Cn1cc(-c2cc(-c3cnc4ccccc4c3)ccn2)n(-c2ccc(C(C)(C)C#N)cc2)c1=O [Example A1, 2-Methyl-2-{4-[3-methyl-2-oxo-5-(4-quinolin-3-ylpyridin-2-yl)-2,3-dihydroimidazol-1-yl]phenyl}propionitrile] | 0.1 to 100 | 0.1 to 100 | 100 to 10000 | 228 | 100 to 10000 | 100 to 10000 | 100 to 10000 |
| Cn1cc(-c2cc(-c3cnc4[nH]ccc4c3)ccn2)n(-c2cccc(C#N)c2)c1=O [Example A55, 3-{3-Methyl-2-oxo-5-[4-(1H-pyrrolo[2,3-b]pyridin-5-yl)pyridin-2-yl]-2,3-dihydro-imidazol-1-yl}benzonitrile] | 0.1 to 100 | 100 to 10000 | 100 to 10000 | 265 | 100 to 10000 | 100 to 10000 | 100 to 10000 |
| Cn1cc(-c2cc(-c3cnc4[nH]ccc4c3)ccn2)n(-c2ccccc2)c1=O [Example A47, 1-Methyl-3-phenyl-4-[4-(1H-pyrrolo[2,3-b]pyridin-5-yl)pyridin-2-yl]-1,3-dihydroimidazol-2-one] | 0.1 to 100 | 100 to 10000 | 100 to 10000 | 264 | 100 to 10000 | – | 100 to 10000 |
| Cn1cc(-c2cc(-c3cnc4[nH]ccc4c3)ccn2)n(-c2ccc(N3CCNCC3)c(C(F)(F)F)c2)c1=O [Example A25, 1-Methyl-3-(4-piperazin-1-yl-3-trifluoromethylphenyl)-4-[4-(1H-pyrrolo[2,3-b]-pyridin-5-yl)pyridin-2-yl]-1,3-dihydroimidazol-2-one] | 100 to 10000 | – | 0.1 to 100 | 163 | 100 to 10000 | 0.1 to 100 | 100 to 10000 |
| CNc1ccc(-c2ccnc(-c3cn(C)c(=O)n3-c3ccc(C(C)(C)C#N)cc3)c2)cn1 [Example A42, 2-Methyl-2-{4-[3-methyl-5-(6-methylamino-[3,4′]bipyridinyl-2′-yl)-2-oxo-2,3-dihydroimidazol-1-yl]phenyl}propionitrile] | 0.1 to 100 | – | 100 to 10000 | 191 | 100 to 10000 | 0.1 to 100 | 100 to 10000 |
| COc1ccc(-c2ccnc(-c3cn(C)c(=O)n3-c3ccc(C(C)(C)C#N)cc3)c2)cc1 [Example A13, 2-(4-{5-[4-(4-Methoxyphenyl)pyridin-2-yl]-3-methyl-2-oxo-2,3-dihydroimidazol-1-yl}phenyl)-2-methylpropionitrile] | 0.1 to 100 | 100 to 10000 | > 10000 | 219 | > 10000 | 100 to 10000 | > 10000 |
| Cn1cc(-c2cc(-c3cccnc3)ccn2)n(-c2ccc(C(C)(C)C#N)cc2)c1=O [Example A10, 2-[4-(5-[3,4′]Bipyridinyl-2′-yl-3-methyl-2-oxo-2,3-dihydroimidazol-1-yl)phenyl]-2-methylpropionitrile] | 0.1 to 100 | – | 100 to 10000 | 180 | 100 to 10000 | 100 to 10000 | > 10000 |
| Cn1cc(-c2cc(-c3cnc4[nH]ccc4c3)ccn2)n(-c2ccc(C(C)(C)C(N)=O)cc2)c1=O [Example A34, 2-(4-{3-Methyl-2-oxo-5-[4-(1H-pyrrolo[2,3-b]pyridin-5-yl)pyridin-2-yl]-2,3-dihydroimidazol-1-yl}phenyl)isobutyramide] | 0.1 to 100 | 100 to 10000 | 100 to 10000 | 299 | 0.1 to 100 | – | 100 to 10000 |
| Cn1cc(-c2cc(-c3cnc4[nH]ccc4c3)ccn2)n(-c2ccc(CC#N)cc2)c1=O [Example A32, (4-{3-Methyl-2-oxo-5-[4-(1H-pyrrolo[2,3-b]pyridin-5-yl)pyridin-2-yl]-2,3-dihydroimidazol-1-yl}phenyl)acetonitrile] | 0.1 to 100 | 0.1 to 100 | 100 to 10000 | 252 | 0.1 to 100 | 0.1 to 100 | 100 to 10000 |
| Cn1cc(-c2cc(-c3cnc4[nH]ccc4c3)ccn2)n(-c2ccc(C(C)(C)CN)cc2)c1=O [Example A35, 3-[4-(2-Amino-1,1-dimethylethyl)phenyl]-1-methyl-4-[4-(1H-pyrrolo[2,3-b]-pyridin-5-yl)pyridin-2-yl]-1,3-dihydroimidazol-2-one] | 0.1 to 100 | 100 to 10000 | 100 to 10000 | 91 | 100 to 10000 | – | 100 to 10000 |
| COc1cc(-n2c(-c3cc(-c4cnc5[nH]ccc5c4)ccn3)cn(C)c2=O)ccc1Cl [Example A58, 3-(4-Chloro-3-methoxyphenyl)-1-methyl-4-[4-(1H-pyrrolo[2,3-b]pyridin-5-yl)-pyridin-2-yl]-1,3-dihydroimidazol-2-one] | 100 to 10000 | – | 100 to 10000 | 223 | 100 to 10000 | 100 to 10000 | 100 to 10000 |
| Cn1cc(-c2cc(-c3ccc4[nH]ccc4c3)ccn2)n(-c2ccc(C(C)(C)C#N)cc2)c1=O [Example A53, 2-(4-{5-[4-(1H-Indol-5-yl)pyridin-2-yl]-3-methyl-2-oxo-2,3-dihydroimidazol-1-yl}-phenyl)-2-methylpropionitrile] | 0.1 to 100 | – | > 10000 | 238 | 100 to 10000 | 100 to 10000 | 100 to 10000 |
| Cc1nc2cc(-c3ccnc(-c4cn(C)c(=O)n4-c4ccc(C(C)(C)C#N)cc4)c3)cnc2[nH]1 [Example A7, 2-Methyl-2-(4-{3-methyl-5-[4-(2-methyl-3H-imidazo[4,5-b]pyridin-6-yl)pyridin-2-yl]-2-oxo-2,3-dihydroimidazol-1-yl}phenyl)propionitrile] | 100 to 10000 | – | 100 to 10000 | 288 | 0.1 to 100 | 0.1 to 100 | 100 to 10000 |
| O=c1[nH]cc(-c2cc(-c3cnc4ccccc4c3)ccn2)n1-c1ccc(N2CCNCC2)c(C(F)(F)F)c1 [Example A5, 1-(4-piperazin-1-yl-3-trifluoromethylphenyl)-5-(4-quinolin-3-ylpyridin-2-yl)-1,3-dihydroimidazol-2-one] | 100 to 10000 | – | 100 to 10000 | 155 | 100 to 10000 | 100 to 10000 | 100 to 10000 |
| CC(C)(C#N)c1ccc(-n2c(-c3cc(-c4cnc5ccccc5c4)ccn3)c[nH]c2=O)cc1 [Example A17, 2-Methyl-2-{4-[2-oxo-5-(4-quinolin-3-ylpyridin-2-yl)-2,3-dihydroimidazol-1-yl]-phenyl}propionitrile] | 100 to 10000 | – | 100 to 10000 | 271 | 100 to 10000 | 100 to 10000 | 100 to 10000 |
| Cn1cc(-c2cc(-c3cnc4[nH]cc(C(F)(F)F)c4c3)ccn2)n(-c2ccc(C(C)(C)C#N)cc2)c1=O [Example A18, 2-Methyl-2-(4-{3-methyl-2-oxo-5-[4-(3-trifluoromethyl-1H-pyrrolo[2,3-b]pyridin-5-yl)pyridin-2-yl]-2,3-dihydroimidazol-1-yl}phenyl)propionitrile] | 100 to 10000 | – | 100 to 10000 | 159 | 100 to 10000 | 0.1 to 100 | 0.1 to 100 |
| COc1ccc(-c2ccnc(-c3c[nH]c(=O)n3-c3ccc(C(C)(C)C#N)cc3)c2)cn1 [Example A15, 2-{4-[5-(6-Methoxy-[3,4′]bipyridinyl-2′-yl)-2-oxo-2,3-dihydroimidazol-1-yl]-10 phenyl}-2-methylpropionitrile] | 100 to 10000 | – | 100 to 10000 | 277 | 100 to 10000 | 100 to 10000 | 100 to 10000 |
| CC(C)(CN)c1ccc(-n2c(-c3cc(-c4cnc5ccccc5c4)ccn3)c[nH]c2=O)cc1 [Example A16, 1-[4-(2-Amino-1,1-dimethylethyl)phenyl]-5-(4-quinolin-3-ylpyridin-2-yl)-1,3-dihydroimidazol-2-one] | 100 to 10000 | – | 100 to 10000 | 244 to 247 | 100 to 10000 | 100 to 10000 | > 10000 |
